From US8609622B2, “C-aryl glucoside derivatives, preparation process and pharmaceutical use thereof” (Shanghai Hengrui Pharmaceutical Co., Ltd., priority 2010, dated 2013)

Tests used:
glucose-load mice = experiment: Preliminary evaluation of the hypoglycemic effect in glucose-load mice; assay type: in vivo; conditions: ICR mice, dose 1 mg/kg, 20% glucose solution 4 g/kg given 15 minutes after administering, blood glucose at minute 0, 15, 30, 45, 60, 120
Method: The purpose was to observe the effect of the test compounds on blood glucose levels of glucose-load mice. Determination and analysis of sugar content in the blood collected from the mouse tail was determined at different times within 2 hours of administration to provide preliminary evaluation of the hypoglycemic activity in vivo.
The experimental animals used were 24 healthy ICR mice (weighing 20-24 g), 12 female and 12 male, purchased from Shanghai Super—B&K laboratory animal Corp. Ltd., animal production license number: SCXK (Shanghai) 2008-0016.
To prepare the drug, a certain amount of compounds were weighed and dissolved in water (pure water OWN) and formulated into an aqueous solution of 0.1 mg/mL (5% DMSO for solubilization).
The administered dose was 1 mg/kg, blank and water groups (containing 5% DMSO).
20% glucose solution (4 g/kg, 0.8 mL each mouse) was given after 15 minutes of administration.
Administering in dose and measuring the blood glucose value (−15 minutes).

SGLT1 = SGLT1 (Homo sapiens (Human), UniProt P13866); experiment: SGLT1 activity measurement: [14C] methyl α-D-glucopyranoside uptake in SGLT1 instantaneous transfer strain; assay type: cell-based; conditions: SGLT1 transfected cells, 96-well plate, 15 min preincubation, 2 hours with [14C] methyl α-D-glucopyranoside at 37° C.
SGLT1, sequence (P13866 whole entry, species assumed): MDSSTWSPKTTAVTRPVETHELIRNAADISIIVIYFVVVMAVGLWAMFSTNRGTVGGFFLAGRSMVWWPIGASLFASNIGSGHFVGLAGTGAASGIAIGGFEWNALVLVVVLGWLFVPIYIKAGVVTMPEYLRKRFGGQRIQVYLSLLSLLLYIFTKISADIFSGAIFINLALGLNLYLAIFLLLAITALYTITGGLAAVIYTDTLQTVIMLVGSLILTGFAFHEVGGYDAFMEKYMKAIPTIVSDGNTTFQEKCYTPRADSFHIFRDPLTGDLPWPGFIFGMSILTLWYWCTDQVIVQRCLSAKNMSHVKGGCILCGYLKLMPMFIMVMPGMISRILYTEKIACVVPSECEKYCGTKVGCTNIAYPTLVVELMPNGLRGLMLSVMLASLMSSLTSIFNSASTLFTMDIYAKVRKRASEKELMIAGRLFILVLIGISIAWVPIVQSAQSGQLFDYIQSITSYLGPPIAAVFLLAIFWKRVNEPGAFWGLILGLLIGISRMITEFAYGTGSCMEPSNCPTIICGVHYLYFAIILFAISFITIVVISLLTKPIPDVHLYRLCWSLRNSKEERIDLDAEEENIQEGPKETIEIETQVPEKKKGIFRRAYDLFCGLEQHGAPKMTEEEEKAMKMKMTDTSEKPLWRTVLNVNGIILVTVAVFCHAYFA

SGLT2 = SGLT2 (Homo sapiens (Human), UniProt P31639); experiment: SGLT2 activity measurement: [14C] methyl α-D-glucopyranoside uptake in SGLT2 instantaneous transfer strain; assay type: cell-based; conditions: SGLT2 transfected cells, 96-well plate, 15 min preincubation, 2 hours with [14C] methyl α-D-glucopyranoside at 37° C.
SGLT2, sequence (P31639 whole entry, species assumed): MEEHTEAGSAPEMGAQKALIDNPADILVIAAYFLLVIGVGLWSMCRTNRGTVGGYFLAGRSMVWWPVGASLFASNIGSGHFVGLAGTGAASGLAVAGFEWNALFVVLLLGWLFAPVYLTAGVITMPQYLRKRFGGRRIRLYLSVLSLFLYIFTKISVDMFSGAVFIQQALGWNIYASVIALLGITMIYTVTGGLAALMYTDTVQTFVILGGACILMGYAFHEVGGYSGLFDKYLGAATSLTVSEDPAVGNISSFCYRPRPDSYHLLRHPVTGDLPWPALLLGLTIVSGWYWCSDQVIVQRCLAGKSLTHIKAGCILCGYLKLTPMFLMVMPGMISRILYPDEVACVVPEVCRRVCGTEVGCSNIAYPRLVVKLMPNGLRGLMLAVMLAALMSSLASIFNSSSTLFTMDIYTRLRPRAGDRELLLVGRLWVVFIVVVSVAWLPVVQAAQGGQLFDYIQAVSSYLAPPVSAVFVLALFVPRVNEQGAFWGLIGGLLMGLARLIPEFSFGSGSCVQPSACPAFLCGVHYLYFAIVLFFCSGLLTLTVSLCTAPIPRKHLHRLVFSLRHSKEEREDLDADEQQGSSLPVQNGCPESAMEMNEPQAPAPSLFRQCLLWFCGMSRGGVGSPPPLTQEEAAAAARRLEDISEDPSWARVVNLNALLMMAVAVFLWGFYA

Row | IC50 (SGLT1) | IC50 (SGLT2) | Compound | AUC decline rate % (glucose-load mice)
1 |  |  | OCC12COC(c3ccc(Cl)c(Cc4ccc5c(c4)CCO5)c3)(O1)[C@H](O)[C@@H](O)[C@@H]2O (stereo in doubt) [Example 5, (1S,2S,3S,4R,5S)-5-[4-chloro-3-(2,3-dihydrobenzofuran-5-ylmethyl)phenyl]-1-(hydroxymethyl)-6,8-dioxabicyclo[3.2.1]octane-2,3,4-triol] | 14.13%
2 | 1260 nM | 9.28 nM | Cc1ccc(C23OCC(CO)(O2)C(O)C(O)C3O)cc1Cc1ccc(-c2ccc(F)cc2)s1 (single isomer, unassigned) [Example 9] | 
3 | > 2000 nM | 3.65 nM | COc1ccc(Cc2cc(C34OCC(CO)(O3)[C@@H](O)[C@H](O)[C@H]4O)ccc2Cl)c(F)c1F (stereo in doubt) [Example 2, (1S,2S,3S,4R,5S)-5-[4-chloro-3-[(2,3-difluoro-4-methoxy-phenyl)methyl]phenyl]-1-(hydroxymethyl)-6,8-dioxabicyclo[3.2.1]octane-2,3,4-triol] | 12.95%
4 | 1220 nM | 3.31 nM | [2H]C([2H])([2H])C([2H])([2H])Oc1ccc(Cc2cc(C34OCC(CO)(O3)[C@@H](O)[C@H](O)[C@H]4O)ccc2Cl)cc1F (stereo in doubt) [Example 10, (1S,2S,3S,4R,5S)-5-[4-chloro-3-[[3-fluoro-4-(1,1,2,2,2-pentadeuterioethoxy)phenyl]methyl]phenyl]-1-(hydroxymethyl)-6,8-dioxabicyclo[3.2.1]octane-2,3,4-triol] | 
5 | 3550 nM | 6.35 nM | [2H]C([2H])(c1ccc(OCC)c(F)c1)c1cc(C23OCC(CO)(O2)[C@@H](O)[C@H](O)[C@H]3O)ccc1Cl (stereo in doubt) [Example 11, (1S,2S,3S,4R,5S)-5-[4-chloro-3-[dideuterio-(4-ethoxy-3-fluoro-phenyl)methyl]phenyl]-1-(hydroxymethyl)-6,8-dioxabicyclo[3.2.1]octane-2,3,4-triol] | 
6 |  |  | OCC12COC(c3ccc(Cl)c(Cc4ccc(OC(F)(F)F)cc4)c3)(O1)[C@H](O)[C@@H](O)[C@@H]2O (stereo in doubt) [Example 6, (1S,2S,3S,4R,5S)-5-[4-chloro-3-[[4-(trifluoromethoxy)phenyl]methyl]phenyl]-1-(hydroxymethyl)-6,8-dioxabicyclo[3.2.1]octane-2,3,4-triol] | 10.15%
7 | 600 nM | 1.42 nM | [2H]C([2H])([2H])Oc1ccc(Cc2cc(C34OCC(CO)(O3)[C@@H](O)[C@H](O)[C@H]4O)ccc2Cl)cc1F (stereo in doubt) [Example 8, (1S,2S,3S,4R,5S)-5-[4-chloro-3-[[3-fluoro-4-(trideuteriomethoxy)phenyl]methyl]phenyl]-1-(hydroxymethyl)-6,8-dioxabicyclo[3.2.1]octane-2,3,4-triol] | 20.49%
8 |  | 6.92 nM | CCOc1ccc(Cc2cc(C34OCC(CO)(O3)C(O)C(O)C4O)ccc2Cl)cc1F (single isomer, unassigned) [Example 4] | 
9 | 14300 nM | 4.58 nM | OCC12COC(c3ccc(Cl)c(Cc4ccc(OCC(F)(F)F)cc4)c3)(O1)C(O)C(O)C2O (single isomer, unassigned) [Example 7] | 
10 |  | 8.08 nM | CCOc1ccc(Cc2cc(C34OCC(CO)(O3)C(O)C(O)C4O)ccc2Cl)c(F)c1F (single isomer, unassigned) [Example 3] | 
11 | 2520 nM |  | OCC12COC(c3ccc(Cl)c(Cc4ccc5c(c4)CCO5)c3)(O1)C(O)C(O)C2O (single isomer, unassigned) [Example 5] | 
12 |  |  | CCOc1ccc(Cc2cc(C34OCC(CO)(O3)[C@@H](O)[C@H](O)[C@H]4O)ccc2Cl)cc1F (stereo in doubt) [Example 4, (1S,2S,3S,4R,5S)-5-[4-chloro-3-[(4-ethoxy-3-fluoro-phenyl)methyl]phenyl]-1-(hydroxymethyl)-6,8-dioxabicyclo[3.2.1]octane-2,3,4-triol] | 15.88%
13 |  |  | OCC12COC(c3ccc(Cl)c(Cc4ccc(OCC(F)(F)F)cc4)c3)(O1)[C@H](O)[C@@H](O)[C@@H]2O (stereo in doubt) [Example 7, (1S,2S,3S,4R,5S)-5-[4-chloro-3-[[4-(2,2,2-trifluoroethoxy)phenyl]methyl]phenyl]-1-(hydroxymethyl)-6,8-dioxabicyclo[3.2.1]octane-2,3,4-triol] | 10.75%
14 | > 2000 nM | 9.53 nM | OCC12COC(c3ccc(Cl)c(Cc4ccc(OCCOC5CC5)cc4)c3)(O1)[C@H](O)[C@@H](O)[C@@H]2O (stereo in doubt) [Example 1, (1S,2S,3S,4R,5S)-5-[4-chloro-3-[[4-[2-(cyclopropoxy)ethoxy]phenyl]methyl]phenyl]-1-(hydroxymethyl)-6,8-dioxabicyclo[3.2.1]octane-2,3,4-triol] | 10.04%
